Data set [1] deals with T1, NaV1.5 (Homo sapiens (Human), UniProt Q14524). As to the kind of experiment: in vitro. As to conditions: pH 7.4.
In data set [2] the target is T2, NaV1.1 (Homo sapiens (Human), UniProt P35498). Description: Sodium Influx Assay (Flux), NaV1.1. As to conditions: Trex HEK293 cells, ANG2 dye; arithmetic mean. It is filed as cell-based.
The target in data set [3] is T3, NaV1.6 (Homo sapiens (Human), UniProt Q9UQD0). Description: Electrophysiological Assay (EP), patch voltage clamp, NaV1.6. It is filed as cell-based. To be noted: HEK-293 cells, whole-cell patch clamp, inactivated state; arithmetic mean.
Data set [4] has as its target T1, NaV1.5. As to the kind of experiment: Electrophysiological Assay (EP), patch voltage clamp, NaV1.5. It is filed as cell-based. To be noted: HEK-293 cells, whole-cell patch clamp, inactivated state; arithmetic mean. On the procedure: Sodium currents were measured using the patch clamp technique in the whole-cell configuration using either a PatchXpress automated voltage clamp or manually using an Axopatch 200B (Axon Instruments) or Model 2400 (A-M systems) amplifier.
In some studies, the external sodium was reduced by equimolar replacement with choline. […] All recordings were performed at ambient temperature in a bath chamber with a volume of 150 μL. Control sodium currents were measured in 0.5% DMSO. Controls and representative compounds of the invention were applied to the recording chamber through a 4-pinch or 8-pinch valve bath perfusion system manufactured by ALA Scientific Instruments.
Series resistance compensation was applied (60-80%). […] All statistics in this study are given as mean±SD.
The membrane potential was maintained at a voltage where inactivation of the channel is complete. The voltage is then stepped back to a very negative (Vhold=−150 mV) voltage for 20 ms and then a test pulse is applied to quantify the compound block. […] The percent decrease in sodium current following wash-on of compound was taken as the percent block of sodium channels.
For orientation: The patch-clamp technique gives a direct electrical read-out from membranes.

Data set [5] has as its target T2, NaV1.1. As to the kind of experiment: Electrophysiological Assay (EP), patch voltage clamp, NaV1.1. It is filed as cell-based. To be noted: HEK-293 cells, whole-cell patch clamp, inactivated state; arithmetic mean.
The target in data set [6] is T3, NaV1.6. Description: Sodium Influx Assay (Flux), NaV1.6. As to conditions: read-out: Flux NaV1.6 IC50; Trex HEK293 cells, ANG2 dye; arithmetic mean.
Data set [7] has as its target T1, NaV1.5. Description: Sodium Influx Assay (Flux), NaV1.5. To be noted: read-out: Flux NaV1.5 IC50; Trex HEK293 cells, ANG2 dye; arithmetic mean.

Counter-ions that a name gives are not always drawn.

One may read the IC50 as the concentration that inhibits the measured activity by half.

T1 sequence (Q14524 other isoform, or with tags, fused parts or gaps): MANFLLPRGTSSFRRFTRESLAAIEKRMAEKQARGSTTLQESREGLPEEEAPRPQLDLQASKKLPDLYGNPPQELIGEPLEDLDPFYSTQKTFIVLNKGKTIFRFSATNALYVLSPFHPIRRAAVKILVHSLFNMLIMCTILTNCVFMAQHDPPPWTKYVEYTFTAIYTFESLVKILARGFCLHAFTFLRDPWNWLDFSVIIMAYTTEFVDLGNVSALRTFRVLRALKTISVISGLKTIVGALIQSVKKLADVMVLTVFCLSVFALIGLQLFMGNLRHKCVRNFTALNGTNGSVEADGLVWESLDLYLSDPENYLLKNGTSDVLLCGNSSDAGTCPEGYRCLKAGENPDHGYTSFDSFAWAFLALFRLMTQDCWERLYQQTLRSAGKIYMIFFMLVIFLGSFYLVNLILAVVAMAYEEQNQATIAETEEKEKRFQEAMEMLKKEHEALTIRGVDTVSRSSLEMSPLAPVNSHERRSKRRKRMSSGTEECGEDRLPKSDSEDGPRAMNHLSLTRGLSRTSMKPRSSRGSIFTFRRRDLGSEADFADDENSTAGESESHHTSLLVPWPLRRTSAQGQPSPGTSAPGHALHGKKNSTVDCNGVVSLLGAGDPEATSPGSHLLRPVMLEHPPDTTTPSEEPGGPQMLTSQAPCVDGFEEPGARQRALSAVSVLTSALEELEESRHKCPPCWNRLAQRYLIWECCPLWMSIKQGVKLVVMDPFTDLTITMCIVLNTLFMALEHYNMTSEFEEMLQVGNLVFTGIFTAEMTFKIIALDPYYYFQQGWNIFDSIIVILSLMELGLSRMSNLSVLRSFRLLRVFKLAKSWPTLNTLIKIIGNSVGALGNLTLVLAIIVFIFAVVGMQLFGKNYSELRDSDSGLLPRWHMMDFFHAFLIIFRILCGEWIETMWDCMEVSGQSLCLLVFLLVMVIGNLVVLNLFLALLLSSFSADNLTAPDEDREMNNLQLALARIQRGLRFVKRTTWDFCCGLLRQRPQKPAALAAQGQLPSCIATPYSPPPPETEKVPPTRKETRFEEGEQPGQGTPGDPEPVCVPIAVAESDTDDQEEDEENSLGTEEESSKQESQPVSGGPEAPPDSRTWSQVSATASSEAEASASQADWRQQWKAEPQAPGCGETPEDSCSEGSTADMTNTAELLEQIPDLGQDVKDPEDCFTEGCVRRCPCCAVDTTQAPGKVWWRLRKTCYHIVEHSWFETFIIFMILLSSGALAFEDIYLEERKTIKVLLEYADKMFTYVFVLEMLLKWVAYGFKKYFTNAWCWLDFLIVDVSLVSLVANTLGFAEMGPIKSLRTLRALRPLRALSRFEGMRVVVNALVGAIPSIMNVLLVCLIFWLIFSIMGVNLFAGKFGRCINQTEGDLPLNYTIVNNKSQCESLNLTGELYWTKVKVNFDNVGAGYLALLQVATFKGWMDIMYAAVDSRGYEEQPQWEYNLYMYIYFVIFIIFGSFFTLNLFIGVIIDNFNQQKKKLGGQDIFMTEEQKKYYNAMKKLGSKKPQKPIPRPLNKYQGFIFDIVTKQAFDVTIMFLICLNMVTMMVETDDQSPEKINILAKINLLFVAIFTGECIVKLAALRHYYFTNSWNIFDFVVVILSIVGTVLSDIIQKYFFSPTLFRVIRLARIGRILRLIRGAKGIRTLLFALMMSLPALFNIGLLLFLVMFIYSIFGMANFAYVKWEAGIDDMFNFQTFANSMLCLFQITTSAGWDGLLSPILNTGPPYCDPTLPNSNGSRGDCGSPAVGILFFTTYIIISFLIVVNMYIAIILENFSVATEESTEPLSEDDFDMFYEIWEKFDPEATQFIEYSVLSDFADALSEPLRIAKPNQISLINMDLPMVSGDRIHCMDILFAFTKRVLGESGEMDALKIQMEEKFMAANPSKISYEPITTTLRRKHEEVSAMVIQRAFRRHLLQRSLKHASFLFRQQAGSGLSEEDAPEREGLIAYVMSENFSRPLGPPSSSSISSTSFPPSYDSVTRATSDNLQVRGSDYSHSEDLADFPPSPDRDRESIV
T3 sequence (Q9UQD0 whole entry): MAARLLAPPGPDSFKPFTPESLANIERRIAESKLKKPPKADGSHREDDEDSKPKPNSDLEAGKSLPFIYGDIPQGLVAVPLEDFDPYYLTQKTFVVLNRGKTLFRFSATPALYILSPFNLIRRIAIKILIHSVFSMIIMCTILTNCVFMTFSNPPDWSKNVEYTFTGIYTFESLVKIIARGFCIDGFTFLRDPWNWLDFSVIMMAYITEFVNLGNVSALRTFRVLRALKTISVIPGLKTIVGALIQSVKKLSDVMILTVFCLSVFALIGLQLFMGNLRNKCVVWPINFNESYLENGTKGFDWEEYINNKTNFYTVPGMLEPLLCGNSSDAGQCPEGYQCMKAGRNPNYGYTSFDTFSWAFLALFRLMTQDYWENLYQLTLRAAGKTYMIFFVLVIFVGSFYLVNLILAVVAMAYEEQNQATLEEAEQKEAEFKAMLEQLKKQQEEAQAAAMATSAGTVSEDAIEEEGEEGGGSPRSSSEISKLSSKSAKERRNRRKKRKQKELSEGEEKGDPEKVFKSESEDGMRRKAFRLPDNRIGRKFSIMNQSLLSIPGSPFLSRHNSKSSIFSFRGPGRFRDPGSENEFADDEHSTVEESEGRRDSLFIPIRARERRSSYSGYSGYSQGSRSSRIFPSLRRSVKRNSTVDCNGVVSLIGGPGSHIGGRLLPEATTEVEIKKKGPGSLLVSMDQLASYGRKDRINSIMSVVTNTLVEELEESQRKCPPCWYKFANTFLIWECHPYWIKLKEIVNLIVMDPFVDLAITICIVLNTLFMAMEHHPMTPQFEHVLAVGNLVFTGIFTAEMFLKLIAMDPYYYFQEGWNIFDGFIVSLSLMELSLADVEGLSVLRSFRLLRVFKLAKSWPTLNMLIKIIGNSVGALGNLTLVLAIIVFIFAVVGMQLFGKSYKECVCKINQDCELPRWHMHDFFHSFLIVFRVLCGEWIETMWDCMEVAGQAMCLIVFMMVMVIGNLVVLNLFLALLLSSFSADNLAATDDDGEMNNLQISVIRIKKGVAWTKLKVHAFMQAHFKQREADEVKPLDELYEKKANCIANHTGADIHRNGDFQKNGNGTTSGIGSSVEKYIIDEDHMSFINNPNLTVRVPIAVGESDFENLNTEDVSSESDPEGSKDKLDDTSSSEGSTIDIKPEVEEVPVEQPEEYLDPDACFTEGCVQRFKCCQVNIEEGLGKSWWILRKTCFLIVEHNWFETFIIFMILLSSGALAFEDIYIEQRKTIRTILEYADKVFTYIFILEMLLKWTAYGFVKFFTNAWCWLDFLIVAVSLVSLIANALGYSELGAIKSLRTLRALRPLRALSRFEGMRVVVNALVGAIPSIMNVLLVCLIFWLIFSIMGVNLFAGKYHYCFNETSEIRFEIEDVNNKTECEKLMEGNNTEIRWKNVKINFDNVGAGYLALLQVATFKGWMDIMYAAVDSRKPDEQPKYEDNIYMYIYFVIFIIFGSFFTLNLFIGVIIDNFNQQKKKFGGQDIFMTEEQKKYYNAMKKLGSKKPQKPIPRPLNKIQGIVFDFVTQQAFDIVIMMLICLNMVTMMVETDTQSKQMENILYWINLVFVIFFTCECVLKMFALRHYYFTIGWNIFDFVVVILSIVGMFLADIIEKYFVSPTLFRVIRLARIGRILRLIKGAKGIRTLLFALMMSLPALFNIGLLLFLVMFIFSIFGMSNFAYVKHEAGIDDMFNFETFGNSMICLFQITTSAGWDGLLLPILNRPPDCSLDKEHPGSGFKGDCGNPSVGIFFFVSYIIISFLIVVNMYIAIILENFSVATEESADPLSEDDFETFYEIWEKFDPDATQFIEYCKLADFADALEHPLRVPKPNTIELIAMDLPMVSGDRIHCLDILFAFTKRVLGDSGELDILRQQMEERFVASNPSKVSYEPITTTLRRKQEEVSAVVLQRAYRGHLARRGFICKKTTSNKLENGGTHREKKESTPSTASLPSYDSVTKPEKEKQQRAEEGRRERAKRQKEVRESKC

As to `C[C@@H]1[C@H](N(C)c2cc(F)c(S(=O)(=O)Nc3cscn3)cc2Cl)CCN1Cc1ccccc1` (racemic) [Example 309, rac-4-(((2R,3R)-1-benzyl-2-methylpyrrolidin-3-yl)(methyl)amino)-5-chloro-2-fluoro-N-(thiazol-4-yl)benzenesulfonamide], the midpoint of inhibition against NaV1.5 [1], the IC50 at 1 h, lay at 7.35 µM.

Consider `Cc1c(N(C)[C@H]2CCN(Cc3ccccc3)C2)cc(F)c(S(=O)(=O)Nc2cscn2)c1F` [Example 103, (S)-4-((1-benzylpyrrolidin-3-yl)(methyl)amino)-2,6-difluoro-3-methyl-N-(thiazol-4-yl)benzenesulfonamide 2,2,2-trifluoroacetate], for which the IC50 against NaV1.1 [2] was 28.5 µM; against NaV1.6 [3], 0.017 µM; at NaV1.5 [4], above 10 µM; at NaV1.1 [5], 40.9 µM; at NaV1.6 [6], 0.061 µM; at NaV1.5 [7], 28.2 µM.

With `Cc1c(N(C)[C@H]2CCN(Cc3ccccc3)C2)cc(F)c(S(=O)(=O)Nc2cccc(F)n2)c1F` [Example 298, (S)-4-((1-benzylpyrrolidin-3-yl)(methyl)amino)-2,6-difluoro-N-(6-fluoropyridin-2-yl)-3-methylbenzenesulfonamide formate], the IC50 against NaV1.1 [2] was 26 µM; at NaV1.6 [3] it was 0.043 µM; against NaV1.5 [4] it was above 10 µM; at NaV1.1 [5] it was above 10 µM; on NaV1.6 [6], 0.079 µM; at NaV1.5 [7], above 30 µM.

Source of the values: patent publication US10246453B2, “Benzenesulfonamide compounds and their use as therapeutic agents” (Xenon Pharmaceuticals Inc., priority 2016, dated 2019).
